In PubChem BioAssay AID493139 (Sanford-Burnham Center for Chemical Genomics, 2011):
Activity calls are given as the source filed them. How the calls were made is not given here.

Biological target: Alkaline phosphatase, germ cell type (Homo sapiens) (UniProt P10696)
Test: placental-like alkaline phosphatase activators or inhibitors – biochemical, human placental-like ALPPL2 isozyme, selectivity assay for mouse IAP activator project, SAR follow-up (AID 493139)
Conditions: purified human placental-like alkaline phosphatase, enzymatic activity

Sequence of Alkaline phosphatase, germ cell type (Homo sapiens) (P10696 whole entry, looked up): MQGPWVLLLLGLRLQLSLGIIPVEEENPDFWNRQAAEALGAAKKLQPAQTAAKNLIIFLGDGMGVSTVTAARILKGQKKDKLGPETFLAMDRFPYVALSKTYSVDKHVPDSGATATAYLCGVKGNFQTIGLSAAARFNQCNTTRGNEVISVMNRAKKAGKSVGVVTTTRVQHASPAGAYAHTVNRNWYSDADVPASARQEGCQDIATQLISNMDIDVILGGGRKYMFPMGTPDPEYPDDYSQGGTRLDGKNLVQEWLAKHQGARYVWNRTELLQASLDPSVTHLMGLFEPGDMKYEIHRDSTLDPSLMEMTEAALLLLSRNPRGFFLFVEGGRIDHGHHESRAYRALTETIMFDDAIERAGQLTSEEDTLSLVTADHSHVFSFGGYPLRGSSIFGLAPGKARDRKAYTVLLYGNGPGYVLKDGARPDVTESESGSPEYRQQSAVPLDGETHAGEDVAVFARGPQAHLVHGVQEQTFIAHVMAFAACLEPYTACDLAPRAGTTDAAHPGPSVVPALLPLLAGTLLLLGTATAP

| SMILES | IC50 (inhibition of PLAP activity) |
| --- | --- |
| O=C(C1CCN(S(=O)(=O)c2ccc3[nH]c(=O)oc3c2)CC1)N1CC=C(c2ccccc2)CC1 | > 100 µM (inactive) |
| CN1CCC(=NNC(=O)c2cc(O)c(O)c(O)c2)CC1 | > 100 µM (inactive) |
| Cc1ccc(/C=N/NC(=O)c2cc(O)c(O)c(O)c2)cc1 | > 100 µM (inactive) |
| O=C(CN1C(=O)/C(=C/c2ccco2)SC1=S)Nc1ccc(C(=O)O)cc1 | > 100 µM (inactive) |
| CCOc1ccccc1CNC(=O)CCNS(=O)(=O)c1ccc2[nH]c(=O)oc2c1 | > 100 µM (inactive) |
| O=C(O)CC(C(=O)O)N1C(=O)/C(=C/c2ccc(-c3nc4ccccc4s3)o2)SC1=S (stereo not drawn) | > 100 µM (inactive) |
| S=C(NCCC(c1ccccc1)c1ccccc1)Nc1ccc(Cl)cc1Cl | 72.1 µM |
| O=C(c1ccco1)N1CCN(S(=O)(=O)c2ccc3[nH]c(=O)oc3c2)CC1 | > 100 µM (inactive) |
| O=C(NNC(=O)c1cc(O)c(O)c(O)c1)NC1CCCCC1 | 53.5 µM |
| CC(C(=O)Nc1cccc(C(=O)O)c1)N1C(=O)/C(=C\c2ccco2)SC1=S (stereo not drawn) | > 100 µM (inactive) |
| O=C(N/N=C/c1ccc(F)cc1)c1cc(O)c(O)c(O)c1 | > 100 µM (inactive) |
| O=[N+]([O-])c1ccc(NC(=S)NCCC(c2ccccc2)c2ccccc2)cc1 | > 100 µM (inactive) |
| CC(C(=O)Nc1ccccc1C(=O)O)N1C(=O)/C(=C\c2ccco2)SC1=S (stereo not drawn) | > 100 µM (inactive) |
| O=C(N/N=C/C1CC=CCC1)c1cc(O)c(O)c(O)c1 (stereo not drawn) | > 100 µM (inactive) |
| O=C(CN1C(=O)/C(=C/c2ccco2)SC1=S)Nc1ccc2nccnc2c1 | > 100 µM (inactive) |
| COc1ccc(NC(=S)NCCC(c2ccccc2)c2ccccc2)cc1 | 40.7 µM |
| FC(F)(F)c1cccc(NC(=S)NCCC(c2ccccc2)c2ccccc2)c1 | 63.5 µM |

Continued, values first:

| IC50 (inhibition of PLAP activity) | SMILES |
| --- | --- |
| > 100 µM (inactive) | CCOc1ccccc1NC(=O)CCNS(=O)(=O)c1ccc2[nH]c(=O)oc2c1 |
| > 100 µM (inactive) | COc1cc([N+](=O)[O-])ccc1NC(=S)NCCC(c1ccccc1)c1ccccc1 |
| > 100 µM (inactive) | O=C(CCN1C(=O)/C(=C/c2ccco2)SC1=S)Nc1ccc(O)cc1C(=O)O |
| > 100 µM (inactive) | COc1ccc(NC(=O)CSc2sc3c(O)cc(=O)[nH]c3c2C#N)c(OC)c1 |
| > 100 µM (inactive) | N#Cc1c(SCC(=O)NCc2ccc3c(c2)OCO3)sc2c(O)cc(=O)[nH]c12 |
| > 100 µM (inactive) | Cc1ccc(NC(=O)CCNS(=O)(=O)c2ccc3[nH]c(=O)oc3c2)cc1N(C)C |
| > 100 µM (inactive) | CCOC(=O)N1CCC(NC(=O)CSc2sc3c(O)cc(=O)[nH]c3c2C#N)CC1 |
| > 100 µM (inactive) | Cc1ccc(NC(=O)CCNS(=O)(=O)c2ccc3[nH]c(=O)oc3c2)cc1 |
| > 100 µM (inactive) | COc1ccc(NC(=O)C(CC(C)C)NS(=O)(=O)c2ccc3[nH]c(=O)oc3c2)cc1 (stereo not drawn) |
| > 100 µM (inactive) | COc1ccc(Cl)cc1NC(=O)CSc1sc2c(O)cc(=O)[nH]c2c1C#N |
| > 100 µM (inactive) | Cc1ccc(NC(=O)CCNS(=O)(=O)c2ccc3[nH]c(=O)oc3c2)cc1F |
| > 100 µM (inactive) | O=C(CCN1C(=O)/C(=C/c2ccco2)SC1=S)Nc1ccc(C(=O)O)c(O)c1 |
| > 100 µM (inactive) | N#Cc1c(SCC(=O)Nc2nccs2)sc2c(O)cc(=O)[nH]c12 |
| > 100 µM (inactive) | CCOC(=O)NC(=O)CSc1sc2c(O)cc(=O)[nH]c2c1C#N |
| > 100 µM (inactive) | CCSc1nnc(NC(=O)CSc2sc3c(O)cc(=O)[nH]c3c2C#N)s1 |
| > 100 µM (inactive) | N#Cc1cccc(NC(=O)CCNS(=O)(=O)c2ccc3[nH]c(=O)oc3c2)c1 |
